Data published in ChEMBL document CHEMBL5390258, “Recent Progress and Prospects of Small Molecules for NLRP3 Inflammasome Inhibition” (J Med Chem, 2023).

Key:
[1] = target: T1, NACHT, LRR and PYD domains-containing protein 3 (Mus musculus, UniProt Q8R4B8); experiment: Inhibition of NLRP3 in mouse BMDM cells assessed as reduction in IL-1beta production preincubated for 30 mins followed by ATP addition measured after 45 mins by ELISA assay; type: cell-based
[2] = target: T1, NACHT, LRR and PYD domains-containing protein 3; experiment: Inhibition of NLRP3 in LPS induced mouse BV-2 cells assessed as reduction in IL-1beta production pretreated for 30 mins followed by nigericin addition measured after 2 hrs by ELISA assay; type: cell-based
[3] = target: T2, NACHT, LRR and PYD domains-containing protein 3 (Homo sapiens, UniProt Q96P20); experiment: Inhibition of NLRP3 in LPS induced human THP-1 cells assessed as reduction in IL-1beta production preincubated for 3 hrs followed by nigericin addition measured after 1 hrs by resazurin staining based assay; type: cell-based
[4] = target: T2, NACHT, LRR and PYD domains-containing protein 3; experiment: Inhibition of NLRP3 in human THP-1 cells assessed as reduction in IL-1beta production by ELISA; type: cell-based
[5] = target: T2, NACHT, LRR and PYD domains-containing protein 3; experiment: Inhibition of NLRP3 in human PBMC cells assessed as reduction in TNF alpha level preincubated for 30 mins followed by LPS addition measured after 6 hrs; type: cell-based
[6] = target: T2, NACHT, LRR and PYD domains-containing protein 3; experiment: Inhibition of NLRP3 in human PBMC cells assessed as reduction in IL-1beta production preincubated for 30 mins followed by LPS addition measured after 6 hrs; type: cell-based
[7] = target: T1, NACHT, LRR and PYD domains-containing protein 3; experiment: Inhibition of NLRP3 in mouse BMDM cells assessed as reduction in IL-1beta production measured after 3 hrs; type: cell-based
[8] = target: T2, NACHT, LRR and PYD domains-containing protein 3; experiment: Inhibition of NLRP3 in human THP-1 cells assessed as reduction in IL-1beta production measured after 1 hrs by ELISA assay; type: cell-based
[9] = target: T2, NACHT, LRR and PYD domains-containing protein 3; experiment: Inhibition of NLRP3 in human THP-1 cells assessed as reduction in IL-1beta production measured after 3 hrs; type: cell-based
[10] = target: T1, NACHT, LRR and PYD domains-containing protein 3; experiment: Inhibition of NLRP3 in mouse J774A.1 cells assessed as reduction of IL-1beta production; type: cell-based, J774.A1
[11] = tested on: THP-1; experiment: Induction of pyroptosis in human THP-1 cells; type: functional, cell-based
[12] = target: T2, NACHT, LRR and PYD domains-containing protein 3; experiment: Inhibition of NLRP3 in human THP-1 cells assessed as reduction in IL-1beta production measured after 3 hrs by AlphaLISA assay; type: cell-based
[13] = target: T2, NACHT, LRR and PYD domains-containing protein 3; experiment: Inhibition of NLRP3 in human THP-1 cells assessed as reduction in IL-1beta production; type: cell-based
[14] = target: T1, NACHT, LRR and PYD domains-containing protein 3; experiment: Inhibition of NLRP3 in mouse BMDM cells assessed as reduction in IL-1beta production; type: cell-based
[15] = target: T2, NACHT, LRR and PYD domains-containing protein 3; experiment: Inhibition of NLRP3 in human THP-1 cells assessed as reduction in IL-1beta production pre incubated for 3 hrs followed by nigericin addition measured after 1 hrs by resazurin staining based assay; type: cell-based
[16] = target: T2, NACHT, LRR and PYD domains-containing protein 3; experiment: Inhibition of NLRP3 in human THP-1 cells assessed as reduction in IL-1beta production by AlphaLISA assay; type: cell-based
[17] = tested on: THP-1; experiment: Induction of pyroptosis in human THP-1 cells by AlphaLisa assay; type: functional, cell-based
[18] = target: T2, NACHT, LRR and PYD domains-containing protein 3; experiment: Inhibition of NLRP3 in human MDM cells assessed as reduction in IL-1beta production measured after 3 hrs by AlphaLISA assay; type: cell-based
[19] = target: T2, NACHT, LRR and PYD domains-containing protein 3; experiment: Inhibition of NLRP3 in human THP-1 cells assessed as reduction in IL-1beta production measured after 3 hrs by resazurin staining based assay; type: cell-based
[20] = Oral bioavailability in Sprague-Dawley rat measured upto 24 hrs by LC-MS/MS analysis; type: ADME, organism-based; conditions: in vivo
[21] = Inhibition of NLRP3 in LPS induced PBMC (unknown origin) assessed as reduction in IL-1beta production preincubated 0.5 hrs followed by nigericin addition measured after 1 hrs by ELISA assay; type: cell-based
[22] = target: T1, NACHT, LRR and PYD domains-containing protein 3; experiment: Inhibition of NLRP3 in LPS induced mouse BMDM cells assessed as reduction in IL-1beta production measured after 30 mins by ELISA assay; type: cell-based
[23] = Lipophilicity, logP of the compound; type: physicochemical; conditions: octanol/water
[24] = target: T2, NACHT, LRR and PYD domains-containing protein 3; experiment: Inhibition of NLRP3 (unknown origin) assessed as reduction of IL-1beta production
[25] = target: T2, NACHT, LRR and PYD domains-containing protein 3; experiment: Inhibition of NLRP3 in human PBMC cells assessed as reduction in Il-1beta production at 0.5 uM relative to control; type: cell-based

T1 sequence (Q8R4B8 whole entry, the tested form may be a part): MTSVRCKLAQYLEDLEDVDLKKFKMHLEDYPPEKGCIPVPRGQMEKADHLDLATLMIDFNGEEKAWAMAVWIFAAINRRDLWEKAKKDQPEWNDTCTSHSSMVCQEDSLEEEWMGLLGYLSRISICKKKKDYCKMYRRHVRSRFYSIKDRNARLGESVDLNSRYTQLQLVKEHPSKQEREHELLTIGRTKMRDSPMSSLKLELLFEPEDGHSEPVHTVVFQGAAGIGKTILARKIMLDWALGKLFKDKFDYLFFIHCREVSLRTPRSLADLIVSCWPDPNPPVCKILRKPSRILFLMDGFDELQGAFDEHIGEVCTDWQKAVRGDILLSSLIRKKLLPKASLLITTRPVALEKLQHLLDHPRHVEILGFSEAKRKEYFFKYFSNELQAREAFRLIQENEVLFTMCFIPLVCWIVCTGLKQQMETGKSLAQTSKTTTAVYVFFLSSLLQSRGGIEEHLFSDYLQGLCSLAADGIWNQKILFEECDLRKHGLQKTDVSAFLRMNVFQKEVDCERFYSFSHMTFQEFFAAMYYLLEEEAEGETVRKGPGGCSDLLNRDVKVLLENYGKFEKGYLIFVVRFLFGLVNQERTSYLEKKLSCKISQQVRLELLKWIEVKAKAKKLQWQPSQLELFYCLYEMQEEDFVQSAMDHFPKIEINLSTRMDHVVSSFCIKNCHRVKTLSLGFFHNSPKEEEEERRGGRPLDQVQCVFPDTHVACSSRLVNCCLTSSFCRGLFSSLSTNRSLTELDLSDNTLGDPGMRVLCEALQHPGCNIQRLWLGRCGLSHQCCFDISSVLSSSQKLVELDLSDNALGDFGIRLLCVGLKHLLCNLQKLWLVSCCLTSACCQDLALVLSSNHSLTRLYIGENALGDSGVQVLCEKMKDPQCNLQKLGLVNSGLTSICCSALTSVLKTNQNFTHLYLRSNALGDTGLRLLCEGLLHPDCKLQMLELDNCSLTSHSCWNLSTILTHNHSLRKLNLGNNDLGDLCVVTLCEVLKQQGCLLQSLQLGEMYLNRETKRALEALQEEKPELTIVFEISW
T2 sequence (Q96P20 whole entry, the tested form may be a part): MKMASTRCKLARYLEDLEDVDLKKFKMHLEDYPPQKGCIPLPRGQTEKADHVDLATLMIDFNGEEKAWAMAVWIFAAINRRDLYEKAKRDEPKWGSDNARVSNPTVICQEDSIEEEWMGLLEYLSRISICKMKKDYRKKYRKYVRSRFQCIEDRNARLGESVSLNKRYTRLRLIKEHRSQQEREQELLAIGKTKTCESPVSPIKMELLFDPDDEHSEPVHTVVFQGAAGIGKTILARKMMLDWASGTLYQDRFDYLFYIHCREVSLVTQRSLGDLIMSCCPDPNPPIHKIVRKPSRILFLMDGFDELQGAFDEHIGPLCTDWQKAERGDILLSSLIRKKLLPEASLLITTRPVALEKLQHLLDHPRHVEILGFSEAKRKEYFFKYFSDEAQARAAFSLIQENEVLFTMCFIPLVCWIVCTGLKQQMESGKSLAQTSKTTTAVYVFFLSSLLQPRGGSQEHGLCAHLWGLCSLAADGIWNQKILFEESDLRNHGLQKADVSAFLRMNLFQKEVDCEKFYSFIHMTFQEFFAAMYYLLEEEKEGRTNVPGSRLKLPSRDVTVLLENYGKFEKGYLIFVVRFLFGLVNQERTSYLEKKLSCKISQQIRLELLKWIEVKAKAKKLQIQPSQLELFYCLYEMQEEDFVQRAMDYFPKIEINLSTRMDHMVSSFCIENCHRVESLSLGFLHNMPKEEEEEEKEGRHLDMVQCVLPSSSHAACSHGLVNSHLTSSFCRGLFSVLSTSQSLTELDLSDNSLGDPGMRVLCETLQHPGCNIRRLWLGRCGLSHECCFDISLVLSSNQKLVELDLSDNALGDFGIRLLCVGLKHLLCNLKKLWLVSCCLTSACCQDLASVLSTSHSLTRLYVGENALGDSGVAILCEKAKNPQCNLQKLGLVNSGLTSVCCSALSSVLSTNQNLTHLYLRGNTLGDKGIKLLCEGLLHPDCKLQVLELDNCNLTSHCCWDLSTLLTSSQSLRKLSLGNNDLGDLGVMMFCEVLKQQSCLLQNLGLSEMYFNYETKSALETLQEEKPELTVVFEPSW

CC(C)c1cc(F)cc(C(C)C)c1NC(=O)NS(=O)(=O)c1cc2c(o1)CCCC2(C)O (centres undefined)
IC50 [1]: < 0.1 µM

COC(=O)c1cccc(C(=O)NC2(C(=O)Nc3c4c(cc5c3CCC5)CCC4)CC2)c1
IC50 [2]: 2.05 µM

Cn1ncc2ccc(S(=O)(=O)NC(=O)Nc3c4c(cc5c3CCC5)CCC4)cc21
IC50 [3]: < 1 µM

CC(C)(O)c1coc(S(=O)(=O)NC(=O)Nc2c3c(cc4c2CCC4)CCC3)c1
IC50 [2]: 3.93 µM

CC1(C)CCc2c1cc1c(c2NC(=O)NS(=O)(=O)c2ccnn2CCCB(O)O)CCC1
IC50 [4]: < 1 µM

CC(C)c1nn(CC(=O)Nc2ccc3nncn3c2)c(=O)c2sc(C3CC3)nc12
IC50 [5]: 4.99 µM

CC(C)c1nn(CC(=O)Nc2ccncn2)c(=O)c2cc(I)nn12
IC50 [6]: < 0.012 µM | IC50 [5]: > 10 µM

CC1(O)CCCc2oc(S(=O)(=O)NC(=O)Nc3c4c(c(Br)c5c3CCC5)CCC4)cc21 (centres undefined)
IC50 [7]: < 0.1 µM

CC(C)c1nn(C(C)C(=O)Nc2ncc(F)cn2)c(=O)c2ccc(Br)cc12 (centres undefined)
IC50 [8]: 3.66 µM

CC(C)c1cc(NC(=O)NS(=O)(=O)C(c2cnn(C)c2)C2CCCN(C)C2)c(C(C)C)s1 (centres undefined)
IC50 [9]: < 0.1 µM

Cc1ccc(S(=O)(=O)/C=C/C#N)cc1
IC50 [10]: 1.54 µM

CC(C)c1nc2c(C(C)C)nn(CC(=O)Nc3ccc4nncn4c3)c(=O)c2s1
IC50 [5]: 11.5 µM

CN1CCC[C@@H](Nc2nnc(-c3ccc(C(F)(F)F)cc3O)c3ncn(C)c23)C1
EC50 [11]: < 0.02 µM

COC(C)(C)Cn1ccc(S(=O)(=O)c2nnc(Nc3c4c(cc5c3CCC5)CCC4)[nH]2)n1
IC50 [12]: < 0.5 µM

Cc1cc(Br)cc(C)c1-n1cc2c(=O)[nH]c(N3C=COCC3)nc2n1
IC50 [13]: 0.003 µM

O=C(CBr)C1CCC1
IC50 [14]: ~5 µM

CN(C)Cc1cc(S(=O)(=O)NC(=O)Nc2c3c(cc4c2CCC4)CCC3)nn1C1CC1
IC50 [15]: ≤ 0.04 µM

CC(C)c1nn(CC(=O)Nc2ccc3nncn3n2)c(=O)cc1N1CC2CC2C1 (centres undefined)
EC50 [6]: 0.09 µM

O=C1Nc2c(ccc3c2CCC3)-c2ccnc(c2)OCCn2cc(F)c(n2)S(=O)(=O)N1
IC50 [16]: < 0.1 µM

Cc1cc(Cl)cc(O)c1-c1ccc2oc(N[C@H]3CCCN4CCC[C@H]34)nc2n1
IC50 [17]: 0.0006 µM

CC(C)(O)c1ccc2c(c1)[S+]([O-])(NC(=O)Nc1c3c(cc4c1CCC4)CCC3)=NC2=O (centres undefined)
IC50 [18]: < 1 µM

O=C(Nc1c2c(cc3c1CCO3)CCC2)NS(=O)(=O)c1ccn(C2CC2)n1
IC50 [19]: ≤ 0.25 µM

COc1cc(C)c(S(=O)(=O)NC(=O)Nc2c3c(cc4c2CCC4)CCC3)cn1
IC50 [15]: < 1 µM

CCN1CCC(S(=O)(=O)NC(=O)Nc2c3c(cc4c2CCC4)CCC3)CC1 [SELNOFLAST]
IC50 [15]: ≤ 1 µM | bioavailability [20]: 76.7%

Cc1nc(C(C)C)c(NC(=O)NS(=O)(=O)c2cc(C(C)(C)O)co2)n1-c1ccncc1
IC50 [13]: ≤ 0.25 µM

CN1CCC[C@@H](Nc2nnc(-c3ccc(C(F)(F)F)cc3O)c3c2nc(C2CC2)n3C)C1
EC50 [11]: < 0.02 µM

CC(C)OC(=O)C(Cc1ncccn1)OC(=O)N[C@@H](C)c1ccc(C(F)(F)F)cc1 (some centres undefined)
IC50 [21]: < 1 µM

NS(=O)(=O)c1cccc(/C=C2\SC(=S)N(CC3CCCCC3)C2=O)c1
IC50 [22]: 0.9 µM

COc1ccc(Cl)cc1C(=O)NCCc1ccc(S(=O)(=O)NO)cc1
logP [23]: 0.19 | IC50 [24]: 8.45 µM

C=C1C(=O)[C@@]23C(CC[C@@H]1[C@H]2OC(=O)/C=C/c1ccc(N2CCOCC2)cc1)[C@@]12CO[C@]3(O)[C@@H](O)[C@@H]1C(C)(C)CC[C@@H]2O (some centres undefined)
inhibition [25]: 2.94%

CCc1c(-c2cccc(F)c2)c(C(C)C)nn(CC(=O)Nc2ncncc2F)c1=O
IC50 [8]: 35.3 µM
